Experimental data published in patent publication US6355658B1, “Coumarin derivatives, methods of preparation and application as medicines” (Centre National de la Recherche Scientifique, priority 1997, dated 2002).

Assays:
[1] = biological target: T1, human leukocyte elastase (Homo sapiens, UniProt P08246); assay: Inactivation kinetics of human leukocyte elastase (chromogenic substrate MeOSuc-Ala2-Pro-Val-pNA); format: biochemical; conditions: 25° C., pH 8.0; for kinact/KI: TABLE 3, no chloromethyl in position 6, inactivation phase of transient inactivation, read-out: Ki/KI or kobs/[I], LHE; for Ki/KI or kobs/[I], LHE: TABLE 3, inactivation phase
T1 sequence (P08246 30-247 limits assumed): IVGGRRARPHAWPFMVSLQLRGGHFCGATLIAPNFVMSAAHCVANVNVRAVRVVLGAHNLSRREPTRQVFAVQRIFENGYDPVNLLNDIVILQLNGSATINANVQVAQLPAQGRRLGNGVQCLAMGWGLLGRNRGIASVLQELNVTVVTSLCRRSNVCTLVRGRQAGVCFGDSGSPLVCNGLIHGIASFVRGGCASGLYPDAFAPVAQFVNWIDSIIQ
Procedure: (§1) The inactivating or inhibitory properties of the coumarin derivatives were tested with respect to a certain number of enzymes: human leukocyte elastase, bovine α-chymotrypsin, human thrombin and bovine trypsin. The kinetic measurements were taken at 25° C. in the following buffers: 0.1 M Hepes, 0.5 M NaCl, 0.01% Tween 80, pH 8.0 (human leukocyte elastase); 0.025 M NaH2PO4, 0.05 M KCl, pH 7.5 (α-chymotrypsin); 0.01 M Tris, 0.01 M Hepes, 0.1 M NaCl, 0.1% PEG-6000, pH 7.5 (human thrombin); 0.1 M Tris, 0.01 M CaCl2, pH 7.5 (bovine trypsin). The chromogenic substrates used to determine the activity of the enzymes are: MeOSuc-Ala2-Pro-Val-pNA (human leukocyte elastase); Suc-Ala2-Pro-Phe-pNA (α-chymotrypsin); H-D-Phe-Pip-Arg-pNA (human thrombin); N-benzoyl-Arg-pNA (bovine trypsin) (pNA: para-nitroaniline).
(§2) The interaction of a suicide substrate with a serine protease corresponds to the minimum reaction scheme described in equation 1 in which E represents the enzyme, I represents the inhibitor, E-I represents the acyl-enzyme and E-I′ represents the inactivated enzyme [Silverman R. B., 1988, “Mechanism-based enzyme inactivation: chemistry and enzymology”, volume 1 CRC Press, Boca Raton, Fla.]: [drawing 76]
(§3) When k4 is small compared to k3, equation 1 can be simplified (equation 2, [Daniels et al., 1983, J. Biol. Chem., 258: 15046-15053]): [drawing 77]
(§4) Considering the first instants of the reaction, the system reduces to a simplified equation of the form of equation 2.
(§5) The kinetic constants characterizing the inactivation of the enzymes with the coumarin derivatives were determined using either the conventional sampling method (or batchwise method) or a method placing the inhibitor and the substrate in competition (or continuous method); these methods are described by Pochet et al. [Pochet et al., 1996, J. Med. Chem., 39: 2579-2585].
(§6) The inactivation of serine proteaaes with the coumarin derivatives is thus characterized by the following constants (see Eq. 2):
(§7) KI: apparent dissociation constant of an enzyme-inhibitor complex located upstream of ki
(§8) ki: first-order rate constant for inactivation at infinite inhibitor concentration
(§9) ki/KI: index of the overall inactivating efficacy of the inhibitor.

[2] = biological target: T2, human thrombin (Homo sapiens, UniProt P00734); assay: Inactivation kinetics of human thrombin (chromogenic substrate H-D-Phe-Pip-Arg-pNA); format: biochemical; conditions: 25° C., pH 7.5, N.I. = non-inactivator
T2 construct: human thrombin
Procedure: as §1, §2, §3, §4, §5, §6, §7, §8, §9

[3] = biological target: T3, bovine α-chymotrypsin (Bos taurus, UniProt P00766); assay: Inactivation kinetics of bovine α-chymotrypsin (chromogenic substrate Suc-Ala2-Pro-Phe-pNA); format: biochemical; conditions: 25° C., pH 7.5, N.I. = non-inactivator
T3 construct: bovine α-chymotrypsin
Procedure: as §1, §2, §3, §4, §5, §6, §7, §8, §9

[4] = biological target: T4, bovine trypsin (Bos taurus, UniProt P00760); assay: Inactivation kinetics of bovine trypsin (chromogenic substrate N-benzoyl-Arg-pNA); format: biochemical; conditions: 25° C., pH 7.5, N.I. = non-inactivator
T4 sequence (P00760 24-246): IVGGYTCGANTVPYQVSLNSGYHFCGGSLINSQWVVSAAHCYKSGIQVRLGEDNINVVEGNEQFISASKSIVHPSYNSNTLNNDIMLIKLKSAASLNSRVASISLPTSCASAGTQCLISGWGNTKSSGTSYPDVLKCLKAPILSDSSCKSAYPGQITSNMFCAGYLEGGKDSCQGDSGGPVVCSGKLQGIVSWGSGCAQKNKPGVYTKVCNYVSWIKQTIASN
Procedure: as §1, §2, §3, §4, §5, §6, §7, §8, §9

[5] = TABLE 3, no chloromethyl in position 6

CC(=O)OCc1ccc2oc(=O)c(C(=O)Oc3cncc(Cl)c3)cc2c1 [Id3, 5-chloro-3-pyridyl 6-acetoxymethyl-2-oxo-2H-1-benzopyran-3-carboxylate]
kinact/KI [1]: 107000 M⁻¹ s⁻¹ | Ki/KI or kobs/[I], LHE [1]: 107000 M⁻¹ s⁻¹ | Ki/KI or kobs/[I], Thrombin ([2]; TABLE 3): N.I. N.I. N.I. N.I. N.I. N.I. N.I. N.I. — | Ki/KI or kobs/[I], Thrombin ([2]; second table headed TABLE 3): N.I. N.I. N.I. N.I. N.I. N.I. N.I. N.I. — | Ki/KI or kobs/[I], α-CT [3, 5]: N.I.^a N.I. N.I. N.I. N.I. N.I. N.I. N.I. | Ki/KI or kobs/[I], α-CT ([3]; second table headed TABLE 3): N.I.^a N.I. N.I. N.I. N.I. N.I. N.I. N.I. | melting point: 153 to 155 °C | Ki/KI or kobs/[I], Trypsin ([4]; TABLE 3): N.I. N.I. N.I. N.I. N.I. N.I. N.I. — — | Ki/KI or kobs/[I], Trypsin ([4]; second table headed TABLE 3): N.I. N.I. N.I. N.I. N.I. N.I. N.I. — —

CCC(=O)OCc1ccc2oc(=O)c(C(=O)Oc3cncc(Cl)c3)cc2c1 [Id6, 5-chloro-3-pyridyl 6-propionyloxymethyl-2-oxo-2H-1-benzopyran-3-carboxylate]
kinact/KI [1]: 62000 M⁻¹ s⁻¹ | Ki/KI or kobs/[I], LHE [1]: 62000 M⁻¹ s⁻¹ | Ki/KI or kobs/[I], Thrombin ([2]; TABLE 3): N.I. N.I. N.I. N.I. N.I. N.I. N.I. N.I. — | Ki/KI or kobs/[I], Thrombin ([2]; second table headed TABLE 3): N.I. N.I. N.I. N.I. N.I. N.I. N.I. N.I. — | Ki/KI or kobs/[I], α-CT [3, 5]: N.I.^a N.I. N.I. N.I. N.I. N.I. N.I. N.I. | Ki/KI or kobs/[I], α-CT ([3]; second table headed TABLE 3): N.I.^a N.I. N.I. N.I. N.I. N.I. N.I. N.I. | melting point: 156 to 158 °C | Ki/KI or kobs/[I], Trypsin ([4]; TABLE 3): N.I. N.I. N.I. N.I. N.I. N.I. N.I. — — | Ki/KI or kobs/[I], Trypsin ([4]; second table headed TABLE 3): N.I. N.I. N.I. N.I. N.I. N.I. N.I. — —

CC(C)C(=O)OCc1ccc2oc(=O)c(C(=O)Oc3cncc(Cl)c3)cc2c1 [Id9, 5-chloro-3-pyridyl 6-dimethylacetoxymethyl-2-oxo-2H-1-benzopyran-3-carboxylate]
kinact/KI [1]: 45000 M⁻¹ s⁻¹ | Ki/KI or kobs/[I], LHE [1]: 45000 M⁻¹ s⁻¹ | Ki/KI or kobs/[I], Thrombin ([2]; TABLE 3): N.I. N.I. N.I. N.I. N.I. N.I. N.I. N.I. — | Ki/KI or kobs/[I], Thrombin ([2]; second table headed TABLE 3): N.I. N.I. N.I. N.I. N.I. N.I. N.I. N.I. — | Ki/KI or kobs/[I], α-CT [3, 5]: N.I.^a N.I. N.I. N.I. N.I. N.I. N.I. N.I. | Ki/KI or kobs/[I], α-CT ([3]; second table headed TABLE 3): N.I.^a N.I. N.I. N.I. N.I. N.I. N.I. N.I. | melting point: 162 to 164 °C | Ki/KI or kobs/[I], Trypsin ([4]; TABLE 3): N.I. N.I. N.I. N.I. N.I. N.I. N.I. — — | Ki/KI or kobs/[I], Trypsin ([4]; second table headed TABLE 3): N.I. N.I. N.I. N.I. N.I. N.I. N.I. — —

CCCC(=O)OCc1ccc2oc(=O)c(C(=O)Oc3cncc(Cl)c3)cc2c1 [Id10, 5-chloro-3-pyridyl 6-butyryloxymethyl-2-oxo-2H-1-benzopyran-3-carboxylate]
kinact/KI [1]: 67600 M⁻¹ s⁻¹ | Ki/KI or kobs/[I], LHE [1]: 67600 M⁻¹ s⁻¹ | Ki/KI or kobs/[I], Thrombin ([2]; TABLE 3): N.I. N.I. N.I. N.I. N.I. N.I. N.I. N.I. — | Ki/KI or kobs/[I], Thrombin ([2]; second table headed TABLE 3): N.I. N.I. N.I. N.I. N.I. N.I. N.I. N.I. — | Ki/KI or kobs/[I], α-CT [3, 5]: N.I.^a N.I. N.I. N.I. N.I. N.I. N.I. N.I. | Ki/KI or kobs/[I], α-CT ([3]; second table headed TABLE 3): N.I.^a N.I. N.I. N.I. N.I. N.I. N.I. N.I. | melting point: 146 to 148 °C | Ki/KI or kobs/[I], Trypsin ([4]; TABLE 3): N.I. N.I. N.I. N.I. N.I. N.I. N.I. — — | Ki/KI or kobs/[I], Trypsin ([4]; second table headed TABLE 3): N.I. N.I. N.I. N.I. N.I. N.I. N.I. — —
